These results are taken from ChEMBL document CHEMBL3046387, “Antidepressant activity of carbamates and urea derivatives” (Med Chem Res, 2012).

The source made the active and inactive calls. No cut-off for these calls is given here.

The test has as its system Mus musculus. The experiment in a line: Antidepressant activity in Mus musculus (mouse) assessed as reduction of immobility time at 10 mg/kg after 1 hr measured for 5 min by forced swim test. The test is classed as functional.
As a reminder, the inhibition in vivo is the percentage by which the read-out fell short of the control. Turning to `CCOC(=O)Nc1ccccc1` [ETHYL PHENYLCARBAMATE], the inhibition in vivo at 10 mg/kg is 21.6%. For the molecule `CCN(CC)C(=O)Nc1ccc(C(=O)O)cc1`, the inhibition in vivo at 10 mg/kg came out at 16.7%. In the case of `CCCCCCCOC(=O)Nc1ccccc1`, the inhibition in vivo at 10 mg/kg turned out to be 32.5%. Consider `CCN(CC)C(=O)Nc1ccc(Cl)cc1`, for which the inhibition in vivo at 10 mg/kg turned out to be 7.04%. On to `NNCCc1ccccc1` [PHENELZINE], for which the inhibition in vivo at 10 mg/kg was 15.9%.

Regarding `CCNC(=S)N1CCN(c2ccccc2)CC1`, the inhibition entry is “inactive”. In the case of `CCN(CC)C(=O)Nc1ccccc1C(=O)O`, the inhibition in vivo at 10 mg/kg came out at 3.52%. `CCN(CC)C(=O)Nc1c(C)cccc1C`: the inhibition result is “inactive”.

Regarding `O=C(Nc1ccccc1)N1CCN(c2ccccc2)CC1`, the inhibition in vivo at 10 mg/kg was 27.7%.
